Columns and labels:
[1] = tested on: human peripheral blood lymphocytes; test: CBMN cytome assay: micronuclei, nuclear buds, nucleoplasmic bridges; conditions: 3 h
Description: The CBMN assay was performed in line with standard protocols [8, 23].
To collect the blood sample, lithium heparin-coated tubes were used (BD vacutainer® with LH 170 I.U., Becton Dickinson: BD-Plymouth PL6 78P, UK).
There were 15 experimental groups altogether. The same experimental design was applied in two independent trials, each of which had two replicate cultures per experimental group; therefore, four replicate cultures for every single experimental group were established.
To induce cell division prior to exposure to the test chemicals, lymphocytes were stimulated with the mitogen phytohemagglutinin (PHA). Cultures were kept in a humidified atmosphere of 5% CO2 at 37 °C.
They started 41 h after PHA stimulation and lasted for 3 h at 37 °C.
Upon completion of exposure, lymphocyte cultures were centrifuged at 100× g. […] This procedure was timed for the 44th hour of lymphocyte cultivation, which represents a critical point for adding of cytoB to hinder cytokinesis and obtain binucleated cells. All treated and control cultures were further maintained at 37 °C until the end of the 72nd hour of cultivation, according to the above-mentioned standard protocols.
The first step in the preparation of microscopic slides was harvesting of cells by centrifugation (100× g), followed by treatment with 0.075 mol/L potassium chloride and succeeded by centrifugation. The sediments of cells were repeatedly fixed with methanol/acetic acid (3:1 v/v) followed by centrifugation. The final lymphocyte suspension was pipetted onto clean microscope slides. For staining, 5% aqueous solution of Giemsa dye was used. Slides were screened using a light microscope at 1000× magnification. For morphological discrimination of micronuclei (MNi), nuclear buds (NBs), nucleoplasmic bridges (NPBs) and cells in apoptosis or necrosis, the criteria by Fenech et al. [25] and Fenech [23] were applied. To determine their frequencies, per experimental point, a total of 4 × 1000 binucleated (BN) cells were scored.
This value was first used to estimate the number of MNi required to reach a decrease and an increase considered significant at a 5% significance level.

[2] = tested on: human lymphocytes; set-up: method as in PMID 27461151; conditions: galangin at 10-20,000 μmol/L; cited from earlier work
[3] = tested on: human peripheral blood lymphocytes; test: CBMN cytome assay: lymphocyte proliferation (M1-M4, CBPI, RI); format: cell-based; conditions: 3 h
Description: On the same slides, parameters of cell proliferation and cytotoxicity were also evaluated, in line with the OECD protocol.

[4] = 5× alone, propolis 6.8 mg/L, galangin […]
[5] = 10× + IRI 9.0 mg/L, propolis 13.6 mg/L, galangin 0.22 mg/L
[6] = 10× alone, propolis 13.6 mg/L, galangin 0.22 mg/L
[7] = 1× + IRI 9.0 mg/L, propolis 1.36 mg/L, galangin 0.02 mg/L
[8] = 1× alone, propolis 1.36 mg/L, galangin 0.02 mg/L
[9] = 5× + IRI 9.0 mg/L, propolis 6.8 mg/L, galangin […]

SMILES: O=c1c(O)c(-c2ccccc2)oc2cc(O)cc(O)c12 [Galangin]
- Nucleoplasmic Bridges (NPBs) Total (BNNPB)4000 [1, 4]: 0
- Nucleoplasmic Bridges (NPBs) Total (NPBs)4000 [1, 4]: 0
- Micronuclei (MNi) Mean (MNi)1000 ± SD ([1]; 5× alone, propolis 6.8 mg/L, galangin […], listed as galangin): 2.25
- Distribution of BNMN Cells with 1 MN [1, 5]: 44 c,p1,p5, p10,g1,g5, g10,p1+iri, p5+iri, p10+iri
- Distribution of BNMN Cells with 2 MN [1, 5]: 5
- Distribution of BNMN Cells with 3 MN [1, 5]: 0
- Distribution of BNMN Cells with 4 MN [1, 5]: 0
- Distribution of BNNB Cells with 1 NB [1, 5]: 30 c,p1,p5, p10,g1,g5,g10, p1+iri
- Distribution of BNNB Cells with 2 NB [1, 5]: 0
- Distribution of BNNPB Cells with 1 NPB [1, 5]: 0
- Distribution of BNNPB Cells with 2 NPB [1, 5]: 0
- Micronuclei (MNi) Mean (BNMN)1000 ± SD [1, 5]: 12.25 ± 0.82 c,p1,p5,p10,g1,g5, g10,p1+iri, p5+iri, p10+iri
- Micronuclei (MNi) Mean (MNi)1000 ± SD [1, 5]: 13.50 ± 1.29 c,p1,p5,p10,g1,g5,g10, p1+iri, p5+iri, p10+iri
- Micronuclei (MNi) Total (BNMN)4000 [1, 5]: 49 c,p1,p5,p10,g1,g5,g10, p1+iri, p5+iri, p10+iri
- Micronuclei (MNi) Total (MNi)4000 [1, 5]: 54 c,p1,p5,p10,g1,g5, g10,p1+iri, p5+iri, p10+iri
- Nuclear Buds (NBs) Mean (BNNB)1000 ± SD [1, 5]: 7.50 ± 1.29 c,p1,p5,p10, g1,g5,g10, p1+iri
- Nuclear Buds (NBs) Mean (NBs)1000 ± SD [1, 5]: 7.50 ± 1.29 c,p1,p5,p10,g1,g5,g10,p1+iri
- Nuclear Buds (NBs) Total (BNNB)4000 [1, 5]: 30 c,p1,p5,p10, g1,g5,g10, p1+iri
- Nuclear Buds (NBs) Total (NBs)4000 [1, 5]: 30 c,p1,p5, p10,g1,g5, g10,p1+iri
- Nucleoplasmic Bridges (NPBs) Mean (BNNPB)1000 ± SD [1, 5]: 0
- Nucleoplasmic Bridges (NPBs) Mean (NPBs)1000 ± SD [1, 5]: 0
- Nucleoplasmic Bridges (NPBs) Total (BNNPB)4000 [1, 5]: 0
- Nucleoplasmic Bridges (NPBs) Total (NPBs)4000 [1, 5]: 0
- Micronuclei (MNi) Mean (MNi)1000 ± SD ([1]; 10× + IRI 9.0 mg/L, propolis 13.6 mg/L, galangin 0.22 mg/L, listed as galangin): 13.50
- Distribution of BNMN Cells with 1 MN [1, 6]: 7
- Distribution of BNMN Cells with 2 MN [1, 6]: 0
- Distribution of BNMN Cells with 3 MN [1, 6]: 0
- Distribution of BNMN Cells with 4 MN [1, 6]: 0
- Distribution of BNNB Cells with 1 NB [1, 6]: 9
- Distribution of BNNB Cells with 2 NB [1, 6]: 0
- Distribution of BNNPB Cells with 1 NPB [1, 6]: 0
- Distribution of BNNPB Cells with 2 NPB [1, 6]: 0
- Micronuclei (MNi) Mean (BNMN)1000 ± SD [1, 6]: 1.75 ± 0.50
- Micronuclei (MNi) Mean (MNi)1000 ± SD [1, 6]: 1.75 ± 0.50
- Micronuclei (MNi) Total (BNMN)4000 [1, 6]: 7
- Micronuclei (MNi) Total (MNi)4000 [1, 6]: 7
- Nuclear Buds (NBs) Mean (BNNB)1000 ± SD [1, 6]: 2.25 ± 0.50
- Nuclear Buds (NBs) Mean (NBs)1000 ± SD [1, 6]: 2.25 ± 0.50
- Nuclear Buds (NBs) Total (BNNB)4000 [1, 6]: 9
- Nuclear Buds (NBs) Total (NBs)4000 [1, 6]: 9
- Nucleoplasmic Bridges (NPBs) Mean (BNNPB)1000 ± SD [1, 6]: 0
- Nucleoplasmic Bridges (NPBs) Mean (NPBs)1000 ± SD [1, 6]: 0
- Nucleoplasmic Bridges (NPBs) Total (BNNPB)4000 [1, 6]: 0
- Nucleoplasmic Bridges (NPBs) Total (NPBs)4000 [1, 6]: 0
- Micronuclei (MNi) Mean (MNi)1000 ± SD ([1]; 10× alone, propolis 13.6 mg/L, galangin 0.22 mg/L, listed as galangin): 1.75
- genotoxicity [2]: not genotoxic per se
- % of Cells with 1 to 4 Nuclei M1 [3, 7]: 24.5 ^↑L %
- % of Cells with 1 to 4 Nuclei M2 [3, 7]: 72.3 ^H %
- % of Cells with 1 to 4 Nuclei M3 [3, 7]: 1.4 ^↓ %
- % of Cells with 1 to 4 Nuclei M4 [3, 7]: 1.8 ^↓ %
- CBPI [3, 7]: 1.788
- Replication Index (%) [3, 7]: 80.1%
- % of Cells with 1 to 4 Nuclei M1 [3, 8]: 13.4%
- % of Cells with 1 to 4 Nuclei M2 [3, 8]: 74.7%
- % of Cells with 1 to 4 Nuclei M3 [3, 8]: 4.0%
- % of Cells with 1 to 4 Nuclei M4 [3, 8]: 7.9%
- CBPI [3, 8]: 1.986
- Replication Index (%) [3, 8]: 100.3%
- % of Cells with 1 to 4 Nuclei M1 [3, 9]: 22.6 ^↑L %
- % of Cells with 1 to 4 Nuclei M2 [3, 9]: 74.2 ^H %
- % of Cells with 1 to 4 Nuclei M3 [3, 9]: 1.6 ^↓ %
- % of Cells with 1 to 4 Nuclei M4 [3, 9]: 1.6 ^↓ %
- CBPI [3, 9]: 1.806
- Replication Index (%) [3, 9]: 82.0%
- % of Cells with 1 to 4 Nuclei M1 [3, 4]: 13.3%
- % of Cells with 1 to 4 Nuclei M2 [3, 4]: 76.9 ^↑ %
- % of Cells with 1 to 4 Nuclei M3 [3, 4]: 3.3 ^↓ %
- % of Cells with 1 to 4 Nuclei M4 [3, 4]: 6.5%
- CBPI [3, 4]: 1.967
- Replication Index (%) [3, 4]: 98.3%
- % of Cells with 1 to 4 Nuclei M1 [3, 5]: 23.1 ^↑L %
- % of Cells with 1 to 4 Nuclei M2 [3, 5]: 74.6 ^H %
- % of Cells with 1 to 4 Nuclei M3 [3, 5]: 1.0 ^↓L %
- % of Cells with 1 to 4 Nuclei M4 [3, 5]: 1.3 ^↓ %
- CBPI [3, 5]: 1.792
- Replication Index (%) [3, 5]: 80.5%
- % of Cells with 1 to 4 Nuclei M1 [3, 6]: 10.8 ^↓ %
- % of Cells with 1 to 4 Nuclei M2 [3, 6]: 79.0 ^↑ %
- % of Cells with 1 to 4 Nuclei M3 [3, 6]: 4.0%
- % of Cells with 1 to 4 Nuclei M4 [3, 6]: 6.2%
- CBPI [3, 6]: 1.995
- Replication Index (%) [3, 6]: 101.2%
